Legend:
[1] = system: H. influenzae (ATCC 49247); test: Bacterial assay: MIC against H. influenzae; type: cell-based; settings: Haemophilus influenzae, ATCC49247; H. influenzae ATCC 49247; read-out: minimal inhibitory concentration (MIC)
S. pneumoniae ATCC6301 [2] = test: Mouse lung infection model (Gram positive); type: in vivo; settings: CD-1 mice, IV 30 mg/kg, cfus at 48 hours post inoculation
Experimental: Anaesthetised female CD-1 mice (18-22 g) were inoculated intranasally with approximately 10^6 cfus of S. pneumoniae ATCC6301 prepared from a fresh overnight culture by placing 50 μl of inoculum on the nares and allowing the mice to inhale. Compounds were administered as indicated at 24 hours post inoculation and the cfus enumerated at 48 hours post inoculation by harvesting the lungs, homogenising in PBS on ice and plating serial dilutions onto TSA+5% blood plates for growth overnight at 37° C. and colony counting.

S. aureus (ATCC 29213) = test: Bacterial assay: MIC against S. aureus; type: cell-based, Staphylococcus aureus; settings: Staphylococcus aureus, ATCC29213, read-out: minimal inhibitory concentration (MIC)
S. pyogenes (ATCC 51339) = test: Bacterial assay: MIC against S. pyogenes; type: cell-based, Streptococcus pyogenes; settings: Streptococcus pyogenes, ATCC51339, read-out: minimal inhibitory concentration (MIC)
S. pneumoniae ATCC6301 [3] = test: Mouse survival model (lung infection); type: in vivo; settings: CD-1 mice
Experimental: Anaesthetised female CD-1 mice (18-22 g) were inoculated intranasally with approximately 10^6 cfus of S. pneumoniae ATCC6301 prepared from a fresh overnight culture by placing 50 μl of inoculum on the nares and allowing the mice to inhale. Compounds are administered as indicated at 24, 48 and 72 hours post inoculation and the mice monitored for survival for seven or nine days after infection. […] Similarly, when Compound 17 was dosed IV at 30 mg/kg 90% of mice survived at day seven.

S. aureus ATCC29213 = test: Rat thigh infection model; type: in vivo; settings: neutropenic Sprague-Dawley rats, IV ≦40 mg/kg
Experimental: The thighs of Sprague-Dawley rats (250-275 g), rendered neutropenic by the intraperitoneal administration of cyclophosphamide (75 mg/kg on days −4 and −1), were inoculated with approximately 1×10^7 cfus of S. aureus ATCC29213.
Compounds were administered as indicated 2 hours later and the cfus enumerated at various times post dosing by harvesting the thighs, homogenising in PBS on ice and plating serial dilutions onto CLED agar plates for growth at 37° C. and colony counting.

CCNC(=O)Nc1nc2cc(-c3cnc(C(C)(C)O)nc3)cc(-c3ccccn3)c2s1 [Compound 1, 1-ethyl-3-[5-[2-(1-hydroxy-1-methyl-ethyl)pyrimidin-5-yl]-7-(2-pyridyl)-1,3-benzothiazol-2-yl]urea]
MIC [1]: ≤ 2 µg/mL
log drop in colony forming units compared to the control (S. pneumoniae ATCC6301 [2]): ≥ 3 log
MIC (S. aureus (ATCC 29213)): ≤ 1 µg/mL
MIC (S. pyogenes (ATCC 51339)): ≤ 1 µg/mL
mice surviving (S. pneumoniae ATCC6301 [3]; IV 10 mg/kg, at seven or nine days): 80%
log drop in colony forming units compared to the control (S. aureus ATCC29213): ≥ 3 log

CCNC(=O)Nc1nc2cc(-c3cnc(C(C)O)nc3)cc(-c3ccccn3)c2s1 (centres unmarked) [Compound 17, 1-ethyl-3-[5-[2-(1-hydroxyethyl)pyrimidin-5-yl]-7-(2-pyridyl)-1,3-benzothiazol-2-yl]urea]
MIC [1]: ≤ 2 µg/mL
MIC (S. aureus (ATCC 29213)): ≤ 1 µg/mL
MIC (S. pyogenes (ATCC 51339)): ≤ 1 µg/mL
mice survived (S. pneumoniae ATCC6301 [3]; IV 30 mg/kg, at day seven): 90%

CCNC(=O)Nc1nc2cc(-c3cnc(C(C)O)nc3)cc(-c3cc(CN4CCSCC4)ccn3)c2s1 (centres unmarked) [Compound 185, 1-ethyl-3-[5-[2-[1-hydroxyethyl]pyrimidin-5-yl]-7-[4-(thiomorpholinomethyl)-2-pyridyl]-1,3-benzothiazol-2-yl]urea]
MIC [1]: ≤ 2 µg/mL
MIC (S. aureus (ATCC 29213)): ≤ 1 µg/mL
MIC (S. pyogenes (ATCC 51339)): ≤ 1 µg/mL

CCNC(=O)Nc1nc2cc(-c3cnc(C(C)(C)O)nc3)cc(-c3cc(CN4CCSCC4)ccn3)c2s1 [Compound 187, 1-ethyl-3-[5-[2-(1-hydroxy-1-methyl-ethyl)pyrimidin-5-yl]-7-[4-(thiomorpholinomethyl)-2-pyridyl]-1,3-benzothiazol-2-yl]urea]
MIC [1]: ≤ 2 µg/mL
MIC (S. aureus (ATCC 29213)): ≤ 1 µg/mL
MIC (S. pyogenes (ATCC 51339)): ≤ 1 µg/mL

CC(=O)NC[C@H]1CN(c2ccc(N3CCOCC3)c(F)c2)C(=O)O1 [Linezolid, reference compound]
survival outcome (S. pneumoniae ATCC6301 [3]; 10 mg/kg): dead by day six

From patent US20170260178A1 (SPERO GYRASE, INC., priority 2012, published 2017)
